Experimental data taken from US9156801B2, “2-substituted oleanolic acid derivative, method preparing for same, and application thereof” (HANGZHOU BENSHENG PHARMACEUTICAL CO., LTD., priority 2011, dated 2015).
Values after ≈ are worked out from the molar mass of the structure shown.

How the values were obtained:
RPMI8226 cell line = test: multiple myeloma cell growth inhibition, MTT; format: cell-based; conditions: Homo sapiens, RPMI-8226
Summary of the method: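 Viability was measured by MTT after a 72 h compound exposure (37° C, 5% CO2) of RPMI8226 myeloma cells seeded at 6000 per well in 1640 medium with 10% fetal bovine serum. Growth inhibition was expressed relative to untreated cells, taken as 0%.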

Kasumi-1 cell line = test: leukemia cell growth inhibition, MTT; format: cell-based; conditions: Homo sapiens
Summary of the method: (§1)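 Proliferation inhibition was read by MTT after 72 h of compound exposure (37 °C, 5% CO2), untreated wells defining 0%. Each well held 6000 cells in 1640 medium plus 10% fetal bovine serum, with test compounds at varied concentrations.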

Jurkat cell line = test: leukemia cell growth inhibition, MTT; format: cell-based; conditions: Homo sapiens, 72 h
Summary of the method: as §1

NB4 cell line = test: leukemia cell growth inhibition, MTT; format: cell-based; conditions: Homo sapiens, NB-4
Summary of the method: as §1

H9 cell line = test: leukemia cell growth inhibition, MTT; format: cell-based; conditions: Homo sapiens
Summary of the method: as §1

K562/adr cell line = test: leukemia cell growth inhibition, MTT; format: cell-based; conditions: Homo sapiens, 72 h
Summary of the method: as §1

A549 cell line = test: solid tumor cell growth inhibition, MTT; format: cell-based; conditions: Homo sapiens
Summary of the method: (§2)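 4000 cells/well, DMEM high glucose + 10% FBS, 37° C/5% CO2; 24 h attach, compound (range of concentrations) 72 h; MTT viability; untreated control = 0% inhibition.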

PC-3 cell line = test: solid tumor cell growth inhibition, MTT; format: cell-based; conditions: Homo sapiens
Summary of the method: as §2

CaES-17 cell line = test: solid tumor cell growth inhibition, MTT; format: cell-based; conditions: Homo sapiens, CaEs17
Summary of the method: as §2

PANC-1 cell line = test: solid tumor cell growth inhibition, MTT; format: cell-based; conditions: Homo sapiens
Summary of the method: as §2

SK-OV-3 cell line = test: solid tumor cell growth inhibition, MTT; format: cell-based; conditions: Homo sapiens
Summary of the method: as §2

Hep-2 cell line = test: solid tumor cell growth inhibition, MTT; format: cell-based; conditions: Homo sapiens
Summary of the method: as §2

RKO cell line = test: solid tumor cell growth inhibition, MTT; format: cell-based; conditions: Homo sapiens, 72 h
Summary of the method: as §2

MG-63 cell line = test: solid tumor cell growth inhibition, MTT; format: cell-based; conditions: Homo sapiens
Summary of the method: as §2

Becap37 cell line = test: solid tumor cell growth inhibition, MTT; format: cell-based; conditions: Homo sapiens
Summary of the method: as §2

Hela cell line = test: solid tumor cell growth inhibition, MTT; format: cell-based; conditions: Homo sapiens, 72 h
Summary of the method: as §2

MGC 803 cell line = test: solid tumor cell growth inhibition, MTT; format: cell-based; conditions: Homo sapiens
Summary of the method: as §2

CNE cell line = test: solid tumor cell growth inhibition, MTT; format: cell-based; conditions: Homo sapiens, 72 h
Summary of the method: as §2

U87 MG cell line = test: solid tumor cell growth inhibition, MTT; format: cell-based; conditions: Homo sapiens, U-87 MG, 72 h
Summary of the method: as §2

Hep G2 cell line = test: solid tumor cell growth inhibition, MTT; format: cell-based, human; conditions: Homo sapiens
Summary of the method: as §2

[1] = 16 μg/mL compound, read-out: IR (cell proliferation inhibition rate)

SMILES: COC(=O)[C@]12CCC(C)(C)CC1C1=CCC3[C@@]4(C)CC(C(=O)NCCc5ccccn5)C(=O)C(C)(C)C4CC[C@@]3(C)[C@]1(C)CC2 (stereo partly shown) [BS-OA-032]
- inhibition at 16 µg/mL (RPMI8226 cell line; RPMI8226, 16 μg/mL compound, 72 h, read-out: IR (cell proliferation inhibition rate)): 30.3%
- IC50 (RPMI8226 cell line; RPMI8226, 72 h): > 16 µg/mL
- inhibition at 16 µg/mL (Kasumi-1 cell line; Kasumi-1, 16 μg/mL compound, 72 h, read-out: IR (cell proliferation inhibition rate)): 48.6%
- IC50 (Kasumi-1 cell line; Kasumi-1, 72 h): 16 µg/mL (≈ 25.9 µM)
- inhibition at 16 µg/mL (Jurkat cell line; [1]): 75.4%
- IC50 (Jurkat cell line): 10.8 µg/mL (≈ 17.6 µM)
- inhibition at 16 µg/mL (NB4 cell line; NB4, 16 μg/mL compound, 72 h, read-out: IR (cell proliferation inhibition rate)): 85.2%
- IC50 (NB4 cell line; NB4, 72 h): 9.82 µg/mL (≈ 15.9 µM)
- IC50 (H9 cell line; H9, 72 h): 13.6 µg/mL (≈ 22 µM)
- inhibition at 16 µg/mL (H9 cell line; H9, 16 μg/mL compound, 72 h, read-out: IR (cell proliferation inhibition rate)): 62.3%
- IC50 (K562/adr cell line; K562/Adr): 12.9 µg/mL (≈ 20.9 µM)
- inhibition at 16 µg/mL (K562/adr cell line; K562/adr, 16 μg/mL compound, read-out: IR (cell proliferation inhibition rate)): 63.7%
- IC50 (A549 cell line; A549, 72 h): > 16 µg/mL
- inhibition at 16 µg/mL (A549 cell line; A549, 16 μg/mL compound, 72 h, read-out: IR (cell proliferation inhibition rate)): -6.6%
- IC50 (PC-3 cell line; PC-3, 72 h): > 16 µg/mL
- inhibition at 16 µg/mL (PC-3 cell line; PC-3, 16 μg/mL compound, 72 h, read-out: IR (cell proliferation inhibition rate)): 32.5%
- inhibition at 16 µg/mL (CaES-17 cell line; CaES-17, 16 μg/mL compound, 72 h, read-out: IR (cell proliferation inhibition rate)): 22%
- IC50 (CaES-17 cell line; CaES-17, 72 h): > 16 µg/mL
- IC50 (PANC-1 cell line; PANC-1, 72 h): > 16 µg/mL
- inhibition at 16 µg/mL (PANC-1 cell line; PANC-1, 16 μg/mL compound, 72 h, read-out: IR (cell proliferation inhibition rate)): 14.5%
- IC50 (SK-OV-3 cell line; SK-OV-3, 72 h): > 16 µg/mL
- inhibition at 16 µg/mL (SK-OV-3 cell line; SK-OV-3, 16 μg/mL compound, 72 h, read-out: IR (cell proliferation inhibition rate)): 26.3%
- IC50 (Hep-2 cell line; HEp-2, 72 h): > 16 µg/mL
- inhibition at 16 µg/mL (Hep-2 cell line; Hep-2, 16 μg/mL compound, 72 h, read-out: IR (cell proliferation inhibition rate)): 5.2%
- inhibition at 16 µg/mL (RKO cell line; [1]): -5.3%
- IC50 (RKO cell line): > 16 µg/mL
- IC50 (MG-63 cell line; MG-63, 72 h): > 16 µg/mL
- inhibition at 16 µg/mL (MG-63 cell line; MG-63, 16 μg/mL compound, 72 h, read-out: IR (cell proliferation inhibition rate)): 4.7%
- inhibition at 16 µg/mL (Becap37 cell line; Becap37, 16 μg/mL compound, 72 h, read-out: IR (cell proliferation inhibition rate)): 4.1%
- IC50 (Becap37 cell line; Becap37, 72 h): > 16 µg/mL
- IC50 (Hela cell line; HeLa): 15.8 µg/mL (≈ 25.7 µM)
- inhibition at 16 µg/mL (Hela cell line; Hela, 16 μg/mL compound, read-out: IR (cell proliferation inhibition rate)): 57%
- inhibition at 16 µg/mL (MGC 803 cell line; MGC 803, 16 μg/mL compound, 72 h, read-out: IR (cell proliferation inhibition rate)): 14.1%
- IC50 (MGC 803 cell line; MGC 803, 72 h): > 16 µg/mL
- inhibition at 16 µg/mL (CNE cell line; [1]): 23.6%
- IC50 (CNE cell line): > 16 µg/mL
- inhibition at 16 µg/mL (U87 MG cell line; [1]): 30.4%
- IC50 (U87 MG cell line): > 16 µg/mL
- inhibition at 16 µg/mL (Hep G2 cell line; HepG2, 72 h, Hep G2, 16 μg/mL compound, 72 h, read-out: IR (cell proliferation inhibition rate)): 23.7%
- IC50 (Hep G2 cell line; HepG2, Hep G2, 72 h): > 16 µg/mL
